Measured values as given in US8329704B2, “Substituted pyrazinone derivatives for use in MCH-1 mediated diseases” (Janssen Pharmaceutica, N.V., priority 2005, dated 2012).
Counter-ions that a name gives are not always drawn.

target: T1, human MCH-1 receptor (Homo sapiens, UniProt Q99705); assay: Ca2+ mobilization experiment for the MCH-1 receptor (FLIPR), inhibition of MCH-induced Ca2+ mobilization; format: cell-based; conditions: CHO cells stably expressing human MCH-1 receptor, inhibition of MCH-induced Ca2+ response, read-out: MCH-1 pIC50 (converted)
T1 construct: expressed in transfected cells
T1 sequence (Q99705 whole entry): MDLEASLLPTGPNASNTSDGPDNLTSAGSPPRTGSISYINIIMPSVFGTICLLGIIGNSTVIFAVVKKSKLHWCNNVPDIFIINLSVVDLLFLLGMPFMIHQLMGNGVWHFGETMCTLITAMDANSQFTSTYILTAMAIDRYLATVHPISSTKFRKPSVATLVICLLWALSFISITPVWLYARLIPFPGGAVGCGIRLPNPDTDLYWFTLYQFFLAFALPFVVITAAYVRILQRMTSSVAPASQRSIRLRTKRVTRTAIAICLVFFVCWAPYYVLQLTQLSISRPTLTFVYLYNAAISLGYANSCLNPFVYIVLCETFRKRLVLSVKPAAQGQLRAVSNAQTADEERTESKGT
Protocol: The interaction of the compounds of Formula (I) with MCH-1 receptors was assessed in in vitro transient calcium (Ca^2+) mobilization assays in the fluorimetric imaging plate reader (FLIPR) format (Sullivan et al. 1999, Methods Mol Biol 114:125-133). In general, the natural agonist (MCH) is incubated with cells expressing the MCH-1 receptor, which elicits a concentration-dependent transient mobilization of Ca^2+ from internal stores. The interaction of the test compounds with the receptor is assessed in competition experiments. Various concentrations of the test compound are added to the incubation mixture containing the receptor-expressing cells and a submaximal concentration of MCH. The test compound in proportion to its antagonist potency and its concentration inhibits MCH-induced Ca^2+ mobilization.
Chinese Hamster ovary cells (CHO) stably expressing the human MCH-1 receptor are grown in a 1:1 mixture of Dulbecco's Modified Eagles Medium (DMEM) and HAM's F12 medium including Glutamax™ (Invitrogen), supplemented with 10% heat-inactivated fetal bovine serum and 400 μg/ml geneticin.
Twenty-four hours before the experiment, MCH-1 receptor-expressing CHO cells are seeded in 20 μl (5,000 cells per well) into 384-well black wall, clear bottom microtiter plates (Costar). On the day of the experiment, 20 μl per well calcium assay kit containing 10 mM probenicide (Molecular Devices) is added. Cells are loaded for 90 min at 37° C. and 5% CO2 in a cell culture incubator. After loading, 20 μl of serial dilutions of the test compound are added and cells are further incubated for 20 min at room temperature in the dark. After 20 min, 20 μl of a submaximal MCH concentration is added and changes in intracellular calcium are recorded directly in a FLIPR III apparatus (Molecular devices).
Data from assays in the presence of compound were calculated as a percentage of total Ca^2+-responses measured in the absence of test compound. Inhibition curves, plotting percent of total Ca^2+-responses versus the log value of the concentration of the test compound, were automatically generated, and sigmoidal inhibition curves were fitted using non-linear regression. The pIC50 values of test compounds were derived from individual curves.

IC50 [nM] | SMILES
31.6 | O=c1c(NCCc2ccccc2)nccn1-c1ccc(OCCN2CCCC2)c(Cl)c1 [2-03]
251 | CN(CCO)CCOc1ccc(-n2ccnc(NCCOc3ccccc3)c2=O)cc1 [1-26]
31.6 | COc1cc(-n2ccnc(SCCc3ccccc3)c2=O)ccc1N1CCC(N(C)C(C)=O)C1 (stereo not drawn) [6-08]
79.4 | COc1cc(-n2ccnc(NCCc3ccccc3)c2=O)ccc1N1CCC(N2CCOCC2)C1 (stereo not drawn) [3-21]
25.1 | O=c1c(NCCc2ccccc2)nccn1-c1ccc(OCCN2CCC(O)CC2)c(Cl)c1 [3-81]
20 | COc1cc(-n2ccnc(SCCc3ccccc3)c2=O)ccc1OCCN1CCCC1 [2-11]
501 | CC(=O)N(C)CCOc1ccc(-n2ccnc(NCCOc3ccccc3)c2=O)cc1 [1-30]
39.8 | COc1cc(-n2ccnc(NCCc3ccccc3)c2=O)ccc1OCCN1CCCC1 [2-04]
50.1 | CN1CCN(CCOc2ccc(-n3ccnc(NCCc4ccccc4)c3=O)cc2Cl)CC1 [3-82]
63.1 | COc1cc(-n2ccnc(NCCc3ccccc3)c2=O)ccc1NCCN1CCOCC1 [3-29]
50.1 | COc1cc(-n2ccnc(NCCc3ccccc3)c2=O)ccc1OCCN1CC[C@H](F)C1 [3-46]
126 | COc1cc(-n2ccnc(NCCc3ccccc3)c2=O)ccc1OCCCNC(=O)C(C)C [3-67]
63.1 | O=c1c(NCCc2ccc(F)cc2)nccn1-c1ccc(OCCN2CCCC2)cc1 [2-15]
501 | CN(C)CCCNc1ccc(-n2ccnc(NCCOc3ccccc3)c2=O)cc1 [1-21]
100 | CN(C1CCN(c2ccc(-n3ccnc(NCCc4ccccc4)c3=O)cc2)C1)S(C)(=O)=O (stereo not drawn) [3-01]
100 | CN(C)CCNc1ccc(-n2ccnc(NCCOc3ccccc3)c2=O)cc1 [1-19]
79.4 | COc1cc(-n2ccnc(NCCOc3ccccc3Cl)c2=O)ccc1OCCN1CCCC1 [2-28]
126 | COc1cc(-n2ccnc(NCCOc3ccccc3)c2=O)ccc1OCCN1CCC(O)C1 (stereo not drawn) [1-68]
50.1 | COc1ccc(CCNc2nccn(-c3ccc(OCCN4CCCC4)c(OC)c3)c2=O)cc1 [2-36]
100 | COc1cc(-n2ccnc(NCCc3ccc(C(F)(F)F)cc3)c2=O)ccc1OCCN1CCCC1 [2-34]
31.6 | COc1cc(-n2ccnc(NCCc3ccccc3)c2=O)ccc1C=CCN1CCCC1 [3-22]
63.1 | COc1cc(-n2ccnc(NCCCOc3ccc(Cl)cc3)c2=O)ccc1OCCN1CCCC1 [2-32]
794 | O=c1c(NCCOc2ccccc2)nccn1-c1ccc(OCCN(CCO)Cc2ccccc2)cc1 [1-33]
126 | COc1cc(-n2ccnc(SCCc3ccccc3)c2=O)ccc1N1CCC(O)CC1 [6-11]
100 | O=c1c(NCCc2ccccc2)nccn1-c1ccc(N2CCNCC2)cc1 [3-06]

IC50 [nM] | SMILES
39.8 | COc1cc(-n2ccnc(NCCCOc3ccc(F)cc3)c2=O)ccc1OCCN1CCCC1 [2-18]
31.6 | COc1cc(-n2ccnc(NCCc3cccc(Br)c3)c2=O)ccc1OCCN1CCCC1 [2-20]
2000 | COc1ccc(OCCCNc2nccn(-c3ccc(OCCN4CCCC4)c(OC)c3)c2=O)cc1 [2-38]
158 | COc1cc(-n2ccnc(NCCc3ccccc3)c2=O)ccc1OCCN1CCNC(=O)C1 [3-65]
126 | COc1cc(-n2ccnc(SCCc3cccc(Cl)c3)c2=O)ccc1OCCN1CCCC1 [2-25]
25.1 | COc1cc(-n2ccnc(NCCc3ccc(F)cc3)c2=O)ccc1OCCN1CCCC1 [2-16]
79.4 | COc1cc(-n2ccnc(NCCCOc3cccc(C#N)c3)c2=O)ccc1OCCN1CCCC1 [2-44]
39.8 | COc1cc(-n2ccnc(NCCc3ccccc3)c2=O)ccc1OCCCN1CCCC(CO)C1 (stereo not drawn) [3-71]
63.1 | COc1cc(-n2ccnc(NCCCOc3ccccc3Cl)c2=O)ccc1OCCN1CCCC1 [2-29]
501 | COc1cc(-n2ccnc(N(C)CCc3ccccc3)c2=O)ccc1OCCN1CCCC1 [2-05]
63.1 | COc1cc(-n2ccnc(NCCOc3ccccc3)c2=O)ccc1OCCN1CCCC1 [1-67]
63.1 | COc1cc(-n2ccnc(NCCOc3ccccc3)c2=O)ccc1OCC(C)N1CCCC1 (stereo not drawn) [1-82]
126 | COc1cc(-n2ccnc(NCCCOc3ccccc3)c2=O)ccc1OC1CCN(C(=O)OC(C)(C)C)CC1 [7-02]
1000 | CCN(CCOc1ccc(-n2ccnc(NCCOc3ccccc3)c2=O)cc1)Cc1ccncc1 [1-34]
39.8 | COc1cc(-n2ccnc(NCCc3ccccc3)c2=O)ccc1OCCN1CCC(C#N)CC1 [3-51]
25.1 | COc1cc(-n2ccnc(NCCc3ccccc3)c2=O)ccc1OCCCN1CCC(F)CC1 [3-72]
100 | CC(C)C(=O)N(C)C1CCN(c2ccc(-n3ccnc(NCCc4ccccc4)c3=O)cc2)C1 (stereo not drawn) [3-04]
31.6 | COc1cc(-n2ccnc(NCCc3ccccc3)c2=O)ccc1OCCN1CCC(O)C1 (stereo not drawn) [3-45]
50.1 | COc1cc(-n2ccnc(NCCc3ccccc3)c2=O)ccc1OCCCN1CCC(O)C1 (stereo not drawn) [3-70]
79.4 | COc1cc(-n2ccnc(CCOc3ccccc3)c2=O)ccc1OCCN1CCCC1 [2-07]
39.8 | CC(C)C(=O)N(C)C1CCN(c2ccc(-n3ccnc(NCCOc4ccccc4)c3=O)cc2)C1 (stereo not drawn) [1-03]
2000 | O=c1c(NCCOc2ccc(F)cc2)nccn1-c1ccc(OCCN2CCCC2)cc1 [2-17]
39.8 | COc1cc(-n2ccnc(SCCc3ccccc3)c2=O)ccc1N1CCC(O)C1 (stereo not drawn) [6-01]
2000 | CN(C)CC(=O)Nc1ccc(-n2ccnc(NCCOc3ccccc3)c2=O)cc1 [1-22]
200 | O=c1c(NCCOc2ccccc2)nccn1-c1ccc(OCCN2CCC(F)CC2)cc1 [1-39]

IC50 [nM] | SMILES
100 | COc1cc(-n2ccnc(NCCOc3ccccc3)c2=O)ccc1N1CCC(N(C)C(=O)C(C)C)C1 (stereo not drawn) [1-11]
39.8 | COc1cc(-n2ccnc(NCCOc3ccccc3)c2=O)ccc1OCCCN1CCC(F)(F)CC1 [1-79]
63.1 | COc1cc(-n2ccnc(NCCc3ccccc3)c2=O)ccc1NC1CCN(C)C1 (stereo not drawn) [3-25]
158 | CN(C(=O)OC(C)(C)C)C1CCN(c2ccc(-n3ccnc(NCCc4ccccc4)c3=O)cc2)C1 (stereo not drawn) [3-05]
25.1 | COc1cc(-n2ccnc(NCCc3ccccc3)c2=O)ccc1OC[C@H]1CCCN1 [3-34]
63.1 | COc1cc(-n2ccnc(SCCc3ccccc3)c2=O)ccc1N1CCOCC1 [6-10]
100 | COc1cc(-n2ccnc(OCCOc3ccccc3)c2=O)ccc1OCCN1CCCC1 [2-14]
398 | COc1cc(-n2ccnc(NCCOc3ccccc3)c2=O)ccc1N1CCC(O)C1 (stereo not drawn) [1-08]
501 | O=c1c(NCCOc2ccccc2)nccn1-c1ccc(OCCN2CCCC2)cc1 [1-35]
100 | O=c1c(NCCOc2ccccc2)nccn1-c1ccc(C=CCN2CCCC2)cc1 [1-16]
126 | O=c1c(NCCc2ccccc2)nccn1-c1ccc(OCCN2CCCC2)cc1 [2-02]
20 | COc1cc(-n2ccnc(SCCc3ccccc3)c2=O)ccc1C=CCN1CCOCC1 [6-13]
79.4 | COCCN1CCN(c2ccc(-n3ccnc(NCCc4ccccc4)c3=O)cc2Cl)CC1 [3-80]
25.1 | COc1cc(-n2ccnc(NCCc3ccccc3)c2=O)ccc1OC[C@@H]1CCCN1C [3-35]
794 | O=c1c(NCCOc2ccccc2)nccn1-c1ccc(OCCN2CCN(c3ccccc3)CC2)cc1 [1-45]
50.1 | Cc1cc(-n2ccnc(NCCOc3ccccc3)c2=O)ccc1OCCN1CCCC1 [1-48]
100 | COc1cc(-n2ccnc(NCCc3ccccc3)c2=O)ccc1OCCN1CCOC(CO)C1 (stereo not drawn) [3-64]
1580 | CC(C)N1CCN(c2ccc(-n3ccnc(NCCOc4ccccc4)c3=O)cc2)CC1 [1-07]
10 | CN[C@H]1CCN(c2ccc(-n3ccnc(SCCc4ccccc4)c3=O)cc2OC)C1 [6-02]
50.1 | CCCN(C)C1CCN(c2ccc(-n3ccnc(NCCc4ccccc4)c3=O)cc2OC)C1 (stereo not drawn) [3-15]
63.1 | COc1cc(-n2ccnc(NCCOc3ccccc3)c2=O)ccc1OCCCN1CCOCC1 [1-80]
39.8 | COc1cc(-n2ccnc(NCCc3ccccc3)c2=O)ccc1C=CCN1CCOCC1 [3-23]
6310 | COc1cc(-n2ccnc(N3CCC(c4ccccc4OC)C3)c2=O)ccc1OCCN1CCCC1 (stereo not drawn) [4-06]
50.1 | COc1cc(-n2ccnc(NCCc3ccccc3)c2=O)ccc1OCCN1CCC(C(N)=O)CC1 [3-53]

test system: not given; assay: not given; conditions: not given

melting point [°C] | SMILES
120.2 | O=c1c(NCCc2ccccc2)nccn1-c1ccc(OCCN2CCCC2)c(Cl)c1 [2-03]
103.6 | CN(CCO)CCOc1ccc(-n2ccnc(NCCOc3ccccc3)c2=O)cc1 [1-26]
105.5 | COc1cc(-n2ccnc(SCCc3ccccc3)c2=O)ccc1N1CCC(N(C)C(C)=O)C1 (stereo not drawn) [6-08]
> 300 | COc1cc(-n2ccnc(NCCc3ccccc3)c2=O)ccc1N1CCC(N2CCOCC2)C1 (stereo not drawn) [3-21]
151.2 | O=c1c(NCCc2ccccc2)nccn1-c1ccc(OCCN2CCC(O)CC2)c(Cl)c1 [3-81]
79.4 | COc1cc(-n2ccnc(SCCc3ccccc3)c2=O)ccc1OCCN1CCCC1 [2-11]
105.9 | CC(=O)N(C)CCOc1ccc(-n2ccnc(NCCOc3ccccc3)c2=O)cc1 [1-30]
101.1 | COc1cc(-n2ccnc(NCCc3ccccc3)c2=O)ccc1OCCN1CCCC1 [2-04]
234.9 | COc1cc(-n2ccnc(NCCOc3ccccc3)c2=O)ccc1OCCN1CCC(F)CC1 (as salt: HCl) [1-70]
198.7 | COc1cc(-n2ccnc(NCCOc3ccccc3)c2=O)ccc1OCCN1CCCC1 (as salt: HCl) [1-67]
